Data taken from patent EP4737445A1, “NOVEL SATURATED HETEROCYCLE-SUBSTITUTED HETEROARYL-CARBONOHYDRAZONOYL DICYANIDE COMPOUND AND USE THEREOF” (Korea Institute of Science and Technology, priority 2023, dated 2025).
pIC50: −log10 of the molar value. Like-named read-outs stand apart in the source and are kept apart here.

Assays:
TDP-43 protein = molecular target: T1, TDP-43 protein (Homo sapiens, UniProt Q13148); experiment: TDP-43 aggregation inhibition in TDP-43-BiFC cell model (Forskolin-induced); type: cell-based; settings: for inhibition at 3 µM: read-out: TDP-43 protein aggregation inhibitory effect: Aggregation inhibitory effect (%) (@3 uM)
T1 construct: BiFC fluorescent-protein fragments (two complementary halves); expressed in transfected cells
Protocol: To screen for new TDP-43 aggregation inhibitors, a TDP-43-BiFC cell model that facilitates observation of TDP-43 aggregate formation in living cells was used. Specifically, TDP-43-BiFC cells were dispensed into a 384-well plate, and the next day, the compounds prepared according to Examples 1 to 46 were treated at concentrations of 3 and 10 µM, respectively, together with Forskolin (treatment concentration 30 µM), which is a compound that induces TDP-43 aggregation by activating the phosphorylation enzyme PKA. After 48 hours, nuclei within cells were stained using Hoechst (treatment concentration 1 µg/mL), and BiFC fluorescence intensity was automatically quantified using Operetta (PerkinElmer) to count the stained nuclei in each well from the entire plate. The group treated only with Forskolin, which induces TDP-43 aggregation, was set as the reference point with 100% TDP-43 aggregation state, and the effect was confirmed by the formula "(BiFC fluorescence intensity by the compounds synthesized according to the Examples of the disclosure - fluorescence intensity of the untreated control group)/(fluorescence intensity of the control group treated only with Forskolin that induces TDP-43 aggregation - fluorescence intensity of the untreated control group) × 100". In addition, the degree of cytotoxicity induced by the newly synthesized compounds was also calculated using the formula "(number of stained nuclei in the compound-treated group/number of stained nuclei in the Forskolin-treated group) × 100", with the group treated only with Forskolin as the reference point at 100% viability. From the treatment results, substances that inhibit intracellular TDP-43 aggregation were identified through screening from a series of candidates based on the criteria of 80% or more TDP-43 aggregation inhibition and 60% cell viability at a compound treatment concentration of 3 µM.
Furthermore, to confirm the TDP-43 aggregation inhibitory effect according to the concentration of the compounds screened in Experimental Example 3, the screened compounds were treated to […] at concentrations of 0.003, 0.01, 0.03, 0.1, 0.3, 1, 3, and 10 µM, respectively, together with Forskolin (treatment concentration 30 µM), which is a TDP-43 aggregation-inducing substance. After 48 hours, cell images were examined to analyze the TDP-43 aggregation reaction and degree of cytotoxicity. The IC50 and toxicity of the compounds were analyzed by nonlinear regression analysis using Prism software (GraphPad). The calculated results for representative compounds are shown in Table 4 below: TDP-43 protein aggregation inhibitory effect and cell viability of novel compounds.

CYP3A4 = molecular target: T2, CYP3A4 (Homo sapiens, UniProt P08684); experiment: CYP isoenzyme activity inhibition in human liver microsomes, CYP3A4; type: in vitro ADME; settings: 10 µM compound; human liver microsomes 0.25 mg/mL; relative to control without compound
T2 construct: human liver microsomes (0.25 mg/mL); from tissue; host or cells: human liver microsomes
Protocol: The CYP isoenzyme activity inhibitory effect by the compounds prepared according to Examples 1 to 46 was confirmed. Specifically, human liver microsomes (0.25 mg/mL), 0.1 M phosphate buffer solution (pH 7.4), a substrate drug cocktail of five drug metabolizing enzymes (Phenacetin 50 µM, Diclofenac 10 µM, S-mephenytoin 100 µM, Dextromethorphan 5 µM, and Midazolam 2.5 µM), and the compounds were added at concentrations of 0 or 10 µM, respectively, and pre-incubated at 37°C for 5 minutes, and then NADPH generation system solution was added and incubated at 37°C for an additional 15 minutes. Thereafter, an acetonitrile solution containing an internal standard (Terfenadine) was added to terminate the reaction, and after centrifugation for 5 minutes (14,000 rpm, 4°C), the supernatant was injected into an LC-MS/MS system to simultaneously analyze the metabolites of the substrate drugs, thereby evaluating the drug metabolizing enzyme inhibitory activity.
The metabolites of each CYP isoenzyme marker drug generated through the reaction were analyzed using a Shimadzu Nexera XR system and TSQ vantage (Thermo). A Kinetex C18 (2.1 × 100 mm, 2.6 µm, particle size; Phenomenex, USA) was used as the HPLC column, and (A) distilled water containing 0.1% formic acid and (B) acetonitrile containing 0.1% formic acid were used as mobile phases, and a gradient program as shown in Table 6 below was applied.
The generated metabolites were quantified using MRM (Multiple Reaction Monitoring) quantitative mode, and Xcalibur (version 1.6.1) was used for data analysis. To show the CYP isoenzyme activity inhibitory effect of the novel compounds prepared according to the Examples of the disclosure, the % activity of CYP isoenzymes relative to the control group without compound addition is shown in Table 6 below. Additionally, to confirm the difference in effect according to substituents, Comparative Compounds 1 and 5, which are two compounds that share a similar parent nucleus structure with Compounds 1 to 46 of the disclosure while Cy is substituted with aromatic heteroaryl instead of saturated heterocyclyl, were selected as comparative compounds and their activities are shown together.

Tau = molecular target: T3, Tau (Homo sapiens, UniProt P10636); experiment: Tau aggregation inhibition in Tau-BiFC cell model (Forskolin-induced); type: cell-based
T3 construct: BiFC fluorescent-protein fragments (two complementary halves on two tau copies); expressed in transfected cells
Protocol: To screen for new tau aggregation inhibitors, a Tau-BiFC cell model that facilitates observation of tau oligomer formation in living cells was used. Tau-BiFC cells were dispensed into a 384-well plate, and the next day, the compounds prepared according to Examples 1 to 46 were treated at concentrations of 1, 3, and 10 µM, respectively, together with Forskolin (treatment concentration 30 µM), which is a compound that induces tau aggregation by activating the tau phosphorylation enzyme PKA. After 48 hours, nuclei within cells were stained using Hoechst (treatment concentration 2 µg/mL), and BiFC fluorescence intensity was automatically quantified using Operetta (Perkin Elmer) to count the stained nuclei in each well from the entire plate. The group treated only with Forskolin, which induces tau aggregation, was set as the reference point with 100% tau aggregation state, and the effect was confirmed by the formula "BiFC fluorescence intensity by the compounds synthesized according to the Examples of the disclosure/(fluorescence intensity of the control group treated only with Forskolin that induces tau aggregation - fluorescence intensity of the untreated control group) × 100". In addition, the degree of cytotoxicity induced by the newly synthesized compounds was also calculated using the formula "(number of stained nuclei in the compound-treated group/number of stained nuclei in the Forskolin-treated group) × 100", with the group treated only with Forskolin as the reference point at 100% viability. From the treatment results, substances that inhibit intracellular tau aggregation were identified through screening from a series of candidates based on the criteria of 70% or more tau aggregation inhibition and 100% cell viability at a compound treatment concentration of 10 µM.
To confirm the tau aggregation inhibitory effect according to the concentration of the compounds screened in Experimental Example 1, the screened compounds were treated to Tau-BiFC cells at concentrations of 0.03, 0.1, 0.3, 1, 3, 10, and 30 µM, respectively, together with Forskolin (treatment concentration 30 µM), which is a tau aggregation-inducing substance. After 48 hours, cell images were examined to analyze the tau aggregation reaction and degree of cytotoxicity. The IC50 and toxicity of the compounds were analyzed by nonlinear regression analysis using Prism software (GraphPad). The calculated results for representative compounds are shown in Table 3 below: Tau aggregation inhibitory effect and cell viability of novel compounds.

[1] = read-out: Tau aggregation inhibitory effect IC50, Tau-BiFC cell line, Forskolin 30 µM, 48 hours, 0.03-30 µM

T2 sequence (P08684 whole entry): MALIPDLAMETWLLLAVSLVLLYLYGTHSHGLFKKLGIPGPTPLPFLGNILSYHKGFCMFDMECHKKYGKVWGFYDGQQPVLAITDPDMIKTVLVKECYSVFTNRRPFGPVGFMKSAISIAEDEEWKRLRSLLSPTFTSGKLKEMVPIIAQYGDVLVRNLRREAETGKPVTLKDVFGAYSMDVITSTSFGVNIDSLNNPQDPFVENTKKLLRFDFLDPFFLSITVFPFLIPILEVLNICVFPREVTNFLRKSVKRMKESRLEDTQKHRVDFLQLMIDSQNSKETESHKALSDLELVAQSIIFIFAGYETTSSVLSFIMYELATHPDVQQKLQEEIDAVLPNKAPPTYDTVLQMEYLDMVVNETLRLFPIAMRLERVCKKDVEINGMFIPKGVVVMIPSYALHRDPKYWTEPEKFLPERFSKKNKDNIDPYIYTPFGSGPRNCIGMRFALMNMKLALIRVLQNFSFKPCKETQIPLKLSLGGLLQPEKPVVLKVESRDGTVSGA
T1 sequence (Q13148 whole entry, the tested form may be a part): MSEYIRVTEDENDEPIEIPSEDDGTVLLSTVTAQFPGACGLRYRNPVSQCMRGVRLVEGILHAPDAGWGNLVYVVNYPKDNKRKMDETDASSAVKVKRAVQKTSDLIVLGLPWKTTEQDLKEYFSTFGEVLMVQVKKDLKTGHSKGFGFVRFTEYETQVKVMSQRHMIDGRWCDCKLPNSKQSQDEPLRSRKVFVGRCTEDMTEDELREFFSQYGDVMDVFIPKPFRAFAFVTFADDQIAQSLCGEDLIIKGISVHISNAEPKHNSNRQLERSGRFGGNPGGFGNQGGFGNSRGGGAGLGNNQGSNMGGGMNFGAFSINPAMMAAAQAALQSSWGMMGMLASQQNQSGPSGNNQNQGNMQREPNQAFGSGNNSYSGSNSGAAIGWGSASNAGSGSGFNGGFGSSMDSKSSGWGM
T3 sequence (P10636 1-441 isoform P10636-8): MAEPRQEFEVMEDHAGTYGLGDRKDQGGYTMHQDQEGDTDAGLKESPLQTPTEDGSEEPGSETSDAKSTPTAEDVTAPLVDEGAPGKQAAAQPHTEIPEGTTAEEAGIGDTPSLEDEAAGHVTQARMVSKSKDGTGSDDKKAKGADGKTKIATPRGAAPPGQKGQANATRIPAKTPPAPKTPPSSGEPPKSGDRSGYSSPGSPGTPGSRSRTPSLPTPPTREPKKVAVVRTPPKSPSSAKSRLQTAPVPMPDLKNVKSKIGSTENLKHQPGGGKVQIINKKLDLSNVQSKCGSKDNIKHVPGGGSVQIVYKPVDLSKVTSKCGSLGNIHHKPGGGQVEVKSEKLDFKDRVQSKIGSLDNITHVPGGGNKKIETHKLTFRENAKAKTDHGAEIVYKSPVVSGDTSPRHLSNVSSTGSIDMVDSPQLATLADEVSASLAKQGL

| Structure (SMILES) | inhibition at 3 µM (TDP-43 protein) | CYP3A4 (% activity) (CYP3A4) | pIC50 (Tau) | pIC50 (TDP-43 protein) | pIC50 (Tau; [1]) |
| --- | --- | --- | --- | --- | --- |
| CN1CCN(c2nc3ccc(NN=C(C#N)C#N)cc3o2)CC1 [Compound 14, (2-(4-methylpiperazin-1-yl)benzo[d]oxazol-6-yl)carbonohydrazonoyl dicyanide] | 100% | 96.8 % activity | 7.32 |  |  |
| N#CC(C#N)=NNc1ccc2nc(N3CCNCC3)oc2c1 [Compound 25, (2-(piperazin-1-yl)benzo[d]oxazol-6-yl)carbonohydrazonoyl dicyanide] | 98.2% | 91.5 % activity | 7.44 | 7.28 |  |
| CC1CN(c2nc3ccc(NN=C(C#N)C#N)cc3o2)CC(C)O1 (centres unmarked) [Compound 18, (2-(2,6-dimethylmorpholino)benzo[d]oxazol-6-yl)carbonohydrazonoyl dicyanide] | 98.6% | 94.6 % activity | 6.89 |  |  |
| COC1CCN(c2nc3ccc(NN=C(C#N)C#N)cc3s2)CC1 [Compound 9, (2-(4-methoxypiperidin-1-yl)benzo[d]thiazol-6-yl)carbonohydrazonoyl dicyanide] | 100% | 66.1 % activity | 7.44 |  |  |
| CC1CN(c2nc3ccc(NN=C(C#N)C#N)cc3o2)CCO1 (centres unmarked) [Compound 15, (2-(2-methylmorpholino)benzo[d]oxazol-6-yl)carbonohydrazonoyl dicyanide] | 97.5% | 87.3 % activity | 7.32 |  |  |
| CC(=O)N1CCN(c2nc3ccc(NN=C(C#N)C#N)cc3o2)CC1 [Compound 31, (2-(4-acetylpiperazin-1-yl)benzo[d]oxazol-6-yl)carbonohydrazonoyl dicyanide] | 41.4% | 88.3 % activity | 7.06 |  |  |
| Cn1c(N2C3CCC2COC3)nc2cc(NN=C(C#N)C#N)ccc21 [Compound 35, (2-(3-oxa-8-azabicyclo[3.2.1]octan-8-yl)-1-methyl-1H-benzo[d]imidazol-5-yl)carbonohydrazonoyl dicyanide] | 62.9% | 86.1 % activity | 7.92 | 6.72 |  |
| N#CC(C#N)=NNc1ccc2nc(NC(=O)N3CC4CCC(C3)O4)sc2c1 [Compound 40, (2-(8-oxa-3-azabicyclo[3.2.1]octane-3-carboxamido)benzo[d]thiazol-6-yl)carbonohydrazonoyl dicyanide] | 67.7% | 75.5 % activity |  |  | 6.50 |
| CN1CCN(c2nc3ccc(NN=C(C#N)C#N)cc3s2)CC1 [Compound 8, (2-(4-methylpiperazin-1-yl)benzo[d]thiazol-6-yl)carbonohydrazonoyl dicyanide] | 100% | 95 % activity | 7.49 |  |  |
| N#CC(C#N)=NNc1ccc2oc(N3CCOCC3)nc2c1 [Compound 3, (2-morpholinobenzo[d]oxazol-5-yl)carbonohydrazonoyl dicyanide] | 79.6% | > 100 % activity | 7.70 |  |  |
| Cn1c(N2CCOCC2)nc2ccc(NN=C(C#N)C#N)cc21 [Compound 5, (1-methyl-2-morpholino-1H-benzo[d]imidazol-6-yl)carbonohydrazonoyl dicyanide] | 94.7% | 86.1 % activity | 7.49 |  |  |
| CCn1c(N2CCOCC2)nc2ccc(NN=C(C#N)C#N)cc21 [Compound 32, (1-ethyl-2-morpholino-1H-benzo[d]imidazol-6-yl)carbonohydrazonoyl dicyanide] | 95.4% | 73 % activity | 7.92 | 7.00 |  |
| N#CC(C#N)=NNc1ccc2nc(N3CC4CCC(C3)O4)sc2c1 [Compound 23, (2-(8-oxa-3-azabicyclo[3.2.1]octan-3-yl)benzo[d]thiazol-6-yl)carbonohydrazonoyl dicyanide] | 99.2% | 71.7 % activity | 7.32 | 6.97 |  |
| CC(C)N1CCN(c2nc3ccc(NN=C(C#N)C#N)cc3s2)CC1 [Compound 27, (2-(4-isopropylpiperazin-1-yl)benzo[d]thiazol-6-yl)carbonohydrazonoyl dicyanide] | 48.2% | 59.8 % activity | 7.36 |  |  |
| CC(C)N1CCN(c2nc3ccc(NN=C(C#N)C#N)cc3o2)CC1 [Compound 28, (2-(4-isopropylpiperazin-1-yl)benzo[d]oxazol-6-yl)carbonohydrazonoyl dicyanide] | 57.1% | 87.8 % activity | 7.80 |  |  |
| N#CC(C#N)=NNc1ccc2nc(NC(=O)N3CCOCC3)sc2c1 [Compound 38, (2-(morpholine-4-carboxamido)benzo[d]thiazol-6-yl)carbonohydrazonoyl dicyanide] | 49.6% | 86.7 % activity |  |  | 7.17 |
| N#CC(C#N)=NNc1ccc2nc(N3CCNCC3)sc2c1 [Compound 24, (2-(piperazin-1-yl)benzo[d]thiazol-6-yl)carbonohydrazonoyl dicyanide] | 97.9% | 74.7 % activity | 6.77 | 7.28 |  |
| N#CC(C#N)=NNc1ccc2nc(N3CCOCC3)sc2c1 [Compound 2, (2-morpholinobenzo[d]thiazol-6-yl)carbonohydrazonoyl dicyanide] | 100% | 95.7 % activity | 8.40 |  |  |
